Test [1] concerns the target T1, Acid ceramidase (Homo sapiens, UniProt Q13510). As to the kind of experiment: Affinity On-target Cellular interaction: (Inhibition of ASAH1 in A375 cell lysates overexpressing ASAH1) EUB0002723a ASAH1. Type of test: functional, subcellular, A-375. Set-up: mode of action Inhibitor, recommended concentration 1 uM.
For test [2], the target named is Sodium/hydrogen exchanger 1 (Homo sapiens, UniProt P19634). In words: Affinity On-target Cellular interaction: ([Na+]uptake assay, PS-120 fibroblasts) EUB0002781aCl SLC9A1. It is filed as functional, cell-based, PS120. Also on record: mode of action Inhibitor, recommended concentration 1 uM.
The target in test [3] is Na(+)/citrate cotransporter (Homo sapiens, UniProt Q86YT5). As to the kind of experiment: Affinity On-target Cellular interaction: (Radiolabelled uptake assay with […], HEK293 cells) EUB0002721a SLC13A5. Type of test: functional, cell-based. Also on record: mode of action Inhibitor, recommended concentration 1 uM.
Test [4] concerns the target Monoacylglycerol lipase ABHD6 (Homo sapiens, UniProt Q9BV23).
The next test addresses Zinc transporter SLC39A7 (Homo sapiens, UniProt Q92504). As to the kind of experiment: Affinity On-target Cellular interaction: (HES-LUC reporter gene assay, U2OS cells) EUB0002669a SLC39A7. Type of test: functional, cell-based. Also on record: mode of action Inhibitor, recommended concentration 1 uM. Background: Reporter assays use an easily measured gene product as a stand-in for the process of interest.

Test [5] concerns the target Sodium/hydrogen exchanger 3 (Homo sapiens, UniProt P48764). As to the kind of experiment: Affinity On-target Cellular interaction: (Inhibition of Na+/H+ exchange, detection of fluorescence changes in acridine orange pH indicator, mouse fibroblast L cell line) EUB0002709aCl SLC9A3. It is filed as functional, cell-based, LAP1. Set-up: mode of action Inhibitor, recommended concentration 1 uM.

Test [6] has as its target T1, Acid ceramidase. In words: Affinity On-target Cellular interaction: (Inhibition of ASAH1 in A375 cell lysates overexpressing ASAH1) EUB0002722a ASAH1. Type of test: functional, subcellular, A-375. Also on record: mode of action Inhibitor, recommended concentration 1 uM.
For test [7], the target named is Poly [ADP-ribose] polymerase 1 (Homo sapiens, UniProt P09874). In words: Affinity On-target Cellular interaction: (Inhibition of H2O2 induced PAR formation in Capan-1 cells) EUB0002633aCl PARP1. It is filed as functional, cell-based. Also on record: mode of action Inhibitor, recommended concentration 1 uM.
In test [8] the target is T2, Monocarboxylate transporter 4 (Homo sapiens, UniProt O15427). In words: (§1) Affinity On-target Cellular interaction: (Inhibition of lactate import in MDA-MB-231 cells) EUB0002761a SLC16A3. It is filed as functional, cell-based. Set-up: mode of action Inhibitor, recommended concentration 1 uM.
The target of test [9] is T2, Monocarboxylate transporter 4. The test is described as §1. Type of test: functional, cell-based. Also on record: mode of action Inhibitor, recommended concentration 1 uM. This is another data set of the same source.
Test [10] has as its target Sodium- and chloride-dependent glycine transporter 1 (Homo sapiens, UniProt P48067). As to the kind of experiment: Affinity On-target Cellular interaction: (Inhibition of [14C]glycine uptake in human neuroblastoma cells transfected with SLC6A9) EUB0002626aCl SLC6A9. It is filed as functional, cell-based, BE(2)-C. Also on record: mode of action Inhibitor, recommended concentration 1 uM.

Test [11] has as its target Monocarboxylate transporter 8 (Homo sapiens, UniProt P36021). In words: Affinity On-target Cellular interaction: (Inhibition of radiolabelled [125I]T3 uptake by target expressed in MDCK1 cells) EUB0002712a SLC16A2. Also on record: mode of action Inhibitor, recommended concentration 1 uM. It is filed as functional, cell-based, MDCK-I.
Test [12] deals with T3, Dipeptidyl peptidase 2 (Homo sapiens, UniProt Q9UHL4). As to the kind of experiment: (§2) Affinity On-target Cellular interaction: (inhibition of fluorogenic substrate cleavage, U937 cell) EUB0002750aCl DPP7. It is filed as functional, cell-based, U-937. Set-up: mode of action Inhibitor, recommended concentration 1 uM.
Test [13] has as its target T3, Dipeptidyl peptidase 2. The description is as §2. It is filed as functional, cell-based, U-937. Also on record: mode of action Inhibitor, recommended concentration 1 uM. This is another data set of the same source.

Experimental findings from ChEMBL document CHEMBL5723379, “Affinity On-target Cellular Literature for EUbOPEN Chemogenomic Library” (2024) are described below.

Bounds are passed on as bounds.

In general, Ki refers to a measure of affinity in units of concentration, obtained from inhibition or displacement. A low value points to a stronger hold on the target. The IC50 is the point on the concentration scale where inhibition reaches its midpoint.

T2 sequence (O15427 whole entry): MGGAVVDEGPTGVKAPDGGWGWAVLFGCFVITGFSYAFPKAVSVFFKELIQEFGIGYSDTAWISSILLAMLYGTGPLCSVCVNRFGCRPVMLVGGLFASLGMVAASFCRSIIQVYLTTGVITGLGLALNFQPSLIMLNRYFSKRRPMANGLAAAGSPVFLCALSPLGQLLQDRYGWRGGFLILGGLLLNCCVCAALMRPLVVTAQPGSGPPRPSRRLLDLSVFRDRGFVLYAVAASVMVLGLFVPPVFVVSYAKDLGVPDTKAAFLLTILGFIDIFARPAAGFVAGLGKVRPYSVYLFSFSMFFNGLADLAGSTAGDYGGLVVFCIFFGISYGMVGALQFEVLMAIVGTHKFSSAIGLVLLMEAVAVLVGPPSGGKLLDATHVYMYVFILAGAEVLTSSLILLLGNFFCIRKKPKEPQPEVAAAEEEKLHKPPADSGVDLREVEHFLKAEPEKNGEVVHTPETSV
T1 sequence (Q13510 22-142 limits assumed): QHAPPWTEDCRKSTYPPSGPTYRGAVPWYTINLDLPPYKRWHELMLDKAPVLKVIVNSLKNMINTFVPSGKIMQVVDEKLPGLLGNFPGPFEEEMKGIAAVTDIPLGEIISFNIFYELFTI
T1 sequence (Q13510 143-395 limits assumed): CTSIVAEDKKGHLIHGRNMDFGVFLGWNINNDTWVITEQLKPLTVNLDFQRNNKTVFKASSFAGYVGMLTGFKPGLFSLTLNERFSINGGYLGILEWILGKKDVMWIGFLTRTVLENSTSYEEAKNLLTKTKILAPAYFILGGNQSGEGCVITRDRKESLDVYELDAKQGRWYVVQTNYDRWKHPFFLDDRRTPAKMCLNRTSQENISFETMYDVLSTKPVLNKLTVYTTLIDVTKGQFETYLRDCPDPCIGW
Chain of Sodium- and chloride-dependent glycine transporter 1 (P48067 whole entry): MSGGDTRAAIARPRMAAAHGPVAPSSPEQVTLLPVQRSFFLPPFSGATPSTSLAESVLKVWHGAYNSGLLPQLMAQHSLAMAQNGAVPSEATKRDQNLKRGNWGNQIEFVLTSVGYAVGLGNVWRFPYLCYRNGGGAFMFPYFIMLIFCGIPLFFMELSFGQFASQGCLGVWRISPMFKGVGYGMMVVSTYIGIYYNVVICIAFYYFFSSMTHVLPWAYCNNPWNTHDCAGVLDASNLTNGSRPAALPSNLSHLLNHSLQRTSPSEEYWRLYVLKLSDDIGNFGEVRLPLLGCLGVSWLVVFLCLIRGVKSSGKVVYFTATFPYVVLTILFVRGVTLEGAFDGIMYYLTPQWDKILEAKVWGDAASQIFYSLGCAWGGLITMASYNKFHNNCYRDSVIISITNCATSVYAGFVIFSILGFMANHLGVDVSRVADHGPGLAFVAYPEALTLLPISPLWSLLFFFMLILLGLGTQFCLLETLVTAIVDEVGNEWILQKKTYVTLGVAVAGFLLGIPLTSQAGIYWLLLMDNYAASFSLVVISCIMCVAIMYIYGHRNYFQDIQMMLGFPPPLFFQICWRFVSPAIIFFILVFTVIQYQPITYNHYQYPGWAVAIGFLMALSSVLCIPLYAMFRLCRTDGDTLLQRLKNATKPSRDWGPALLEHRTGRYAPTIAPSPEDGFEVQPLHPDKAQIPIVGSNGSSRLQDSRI
Chain of Monocarboxylate transporter 8 (P36021 whole entry): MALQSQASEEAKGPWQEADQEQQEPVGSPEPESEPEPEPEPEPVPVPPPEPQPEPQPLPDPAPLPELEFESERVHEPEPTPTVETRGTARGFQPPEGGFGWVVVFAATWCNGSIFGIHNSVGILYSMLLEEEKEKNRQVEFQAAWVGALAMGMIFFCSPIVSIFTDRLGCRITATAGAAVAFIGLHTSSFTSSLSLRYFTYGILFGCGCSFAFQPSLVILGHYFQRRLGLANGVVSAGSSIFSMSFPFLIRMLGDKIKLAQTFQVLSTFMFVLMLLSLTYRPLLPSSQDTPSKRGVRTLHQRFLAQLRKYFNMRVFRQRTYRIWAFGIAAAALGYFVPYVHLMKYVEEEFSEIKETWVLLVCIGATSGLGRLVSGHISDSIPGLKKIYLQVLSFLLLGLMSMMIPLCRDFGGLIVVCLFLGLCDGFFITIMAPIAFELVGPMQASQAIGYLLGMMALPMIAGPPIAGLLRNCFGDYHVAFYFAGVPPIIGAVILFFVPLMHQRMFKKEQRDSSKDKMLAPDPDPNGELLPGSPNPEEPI
Chain of Sodium/hydrogen exchanger 1 (P19634 whole entry): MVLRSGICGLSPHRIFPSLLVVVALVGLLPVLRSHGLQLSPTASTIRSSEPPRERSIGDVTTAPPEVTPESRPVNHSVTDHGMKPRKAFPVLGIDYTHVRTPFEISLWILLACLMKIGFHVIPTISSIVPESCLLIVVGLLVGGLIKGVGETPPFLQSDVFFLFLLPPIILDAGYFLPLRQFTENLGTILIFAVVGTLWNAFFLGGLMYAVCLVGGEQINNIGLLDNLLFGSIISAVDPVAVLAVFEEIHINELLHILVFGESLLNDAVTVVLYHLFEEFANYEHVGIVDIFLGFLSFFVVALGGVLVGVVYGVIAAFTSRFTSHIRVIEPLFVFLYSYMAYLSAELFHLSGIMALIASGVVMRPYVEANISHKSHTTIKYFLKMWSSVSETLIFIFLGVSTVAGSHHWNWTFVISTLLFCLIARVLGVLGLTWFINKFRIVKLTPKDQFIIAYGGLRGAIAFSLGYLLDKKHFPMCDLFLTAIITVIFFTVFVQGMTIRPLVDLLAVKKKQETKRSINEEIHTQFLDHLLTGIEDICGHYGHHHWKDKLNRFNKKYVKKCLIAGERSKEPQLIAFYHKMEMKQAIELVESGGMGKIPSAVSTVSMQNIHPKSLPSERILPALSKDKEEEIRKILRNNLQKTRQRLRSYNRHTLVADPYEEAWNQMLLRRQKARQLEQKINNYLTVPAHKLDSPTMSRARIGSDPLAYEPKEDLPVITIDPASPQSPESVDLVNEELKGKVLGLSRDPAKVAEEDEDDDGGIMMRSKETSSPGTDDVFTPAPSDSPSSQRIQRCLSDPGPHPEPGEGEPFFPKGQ
Chain of Monoacylglycerol lipase ABHD6 (Q9BV23 whole entry): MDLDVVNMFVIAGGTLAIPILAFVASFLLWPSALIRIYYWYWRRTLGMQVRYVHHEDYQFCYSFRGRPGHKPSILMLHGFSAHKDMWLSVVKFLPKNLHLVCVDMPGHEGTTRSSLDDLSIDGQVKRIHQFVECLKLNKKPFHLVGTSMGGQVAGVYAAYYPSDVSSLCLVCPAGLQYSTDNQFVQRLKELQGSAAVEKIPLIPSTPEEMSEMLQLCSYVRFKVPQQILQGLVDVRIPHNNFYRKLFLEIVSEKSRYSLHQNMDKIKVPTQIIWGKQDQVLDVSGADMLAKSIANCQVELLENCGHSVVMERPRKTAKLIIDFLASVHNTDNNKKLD
Chain of Na(+)/citrate cotransporter (Q86YT5 whole entry): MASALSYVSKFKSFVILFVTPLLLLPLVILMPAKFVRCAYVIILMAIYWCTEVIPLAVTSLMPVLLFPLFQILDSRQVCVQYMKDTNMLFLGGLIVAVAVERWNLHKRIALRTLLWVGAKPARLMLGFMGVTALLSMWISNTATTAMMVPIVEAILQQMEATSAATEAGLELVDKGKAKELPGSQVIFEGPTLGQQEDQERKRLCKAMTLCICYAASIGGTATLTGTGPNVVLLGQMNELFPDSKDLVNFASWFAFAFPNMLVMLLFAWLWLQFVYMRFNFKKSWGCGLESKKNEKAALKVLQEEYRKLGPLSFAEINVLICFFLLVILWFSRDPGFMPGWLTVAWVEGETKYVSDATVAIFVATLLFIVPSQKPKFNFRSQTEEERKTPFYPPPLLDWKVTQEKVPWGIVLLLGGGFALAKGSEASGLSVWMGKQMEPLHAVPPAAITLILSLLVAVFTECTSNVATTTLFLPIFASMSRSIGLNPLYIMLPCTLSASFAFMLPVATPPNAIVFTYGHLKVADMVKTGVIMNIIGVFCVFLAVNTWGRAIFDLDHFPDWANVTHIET
Chain of Sodium/hydrogen exchanger 3 (P48764 whole entry): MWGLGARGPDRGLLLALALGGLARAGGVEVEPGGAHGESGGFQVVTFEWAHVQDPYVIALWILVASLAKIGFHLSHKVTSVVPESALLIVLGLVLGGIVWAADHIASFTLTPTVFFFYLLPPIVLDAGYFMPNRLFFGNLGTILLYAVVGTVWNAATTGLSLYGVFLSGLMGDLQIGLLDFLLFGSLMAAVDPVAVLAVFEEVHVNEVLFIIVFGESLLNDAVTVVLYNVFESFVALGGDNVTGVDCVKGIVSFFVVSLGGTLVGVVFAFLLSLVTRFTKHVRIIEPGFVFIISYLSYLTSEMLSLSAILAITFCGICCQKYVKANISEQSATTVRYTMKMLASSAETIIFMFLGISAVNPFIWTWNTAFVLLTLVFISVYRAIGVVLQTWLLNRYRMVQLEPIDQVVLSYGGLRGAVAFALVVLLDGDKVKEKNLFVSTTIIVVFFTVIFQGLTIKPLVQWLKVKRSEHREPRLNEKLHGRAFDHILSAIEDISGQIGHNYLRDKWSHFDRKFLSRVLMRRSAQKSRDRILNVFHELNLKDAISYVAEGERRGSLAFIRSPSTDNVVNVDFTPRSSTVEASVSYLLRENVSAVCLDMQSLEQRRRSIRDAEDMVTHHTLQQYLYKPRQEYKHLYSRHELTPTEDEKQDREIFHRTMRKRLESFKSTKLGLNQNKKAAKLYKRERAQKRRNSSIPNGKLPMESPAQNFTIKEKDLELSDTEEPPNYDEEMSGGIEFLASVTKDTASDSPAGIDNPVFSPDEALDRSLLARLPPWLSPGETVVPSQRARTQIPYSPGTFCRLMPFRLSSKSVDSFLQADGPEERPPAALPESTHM

As to `CCCCCCCCCCCCC/C=C/[C@@H](O)[C@H](CO)NC(=O)CCl`, the Ki at Acid ceramidase [1] came out at 40.2 nM. Compound `N=C(N)NC(=O)c1cnn(-c2cccc3ncccc23)c1C1CC1` came in with an IC50 in test [2] of 14 nM. Compound `O=C(NCc1ccc(Cl)cc1)C1CCN(S(=O)(=O)c2cc(Cl)cc(Cl)c2)CC1` displayed an IC50 in test [3] above 100000 nM. In test [4], `O=C(c1cccc(-c2ccc(-c3cn(C(=O)N4CCCCC4c4ccccc4)nn3)cc2)c1)N1CCCCC1` (centres undefined) had an IC50 of 0.21 nM. Consider `O=C1Nc2ccccc2C2(CCN(CC(Cc3ccccc3)Nc3nc4ccc(F)cc4s3)CC2)N1` (centres undefined), for which half-maximal inhibition at Zinc transporter SLC39A7 (IC50) required 130 nM. `CC(=Cc1cc(C)ccc1C=C(C)C(=O)NC(=N)N)C(=O)N=C(N)N` gave an IC50 in [5] of 20 nM. This lies in the double-digit nanomolar range. The compound `CCCCCCCCCCCCC/C=C/[C@@H](O)[C@H](CO)NC(=O)CBr` yielded a Ki on Acid ceramidase [6] of 29.7 nM. In test [7], `CNCc1ccc(-c2cc3cc(F)cc(C(N)=O)c3o2)cc1` displayed an IC50 of 69.9 nM. Take `CC(C)(OCc1cc(-c2cccc(OC3CC3)c2)n(-c2ccccc2Cl)n1)C(=O)O`: the IC50 in test [8] amounted to 8.6 nM; in test [9], 19 nM. As to `CN(CCOc1ccc(-c2ccc3c(c2)OCO3)cc1C(C)(C)C)CC(=O)O`, the midpoint of inhibition in test [10], the IC50, lay at 15.8 nM. The compound `COc1cc([C@@H]2Oc3c(O)cc([C@H]4Oc5cc(O)cc(O)c5C(=O)[C@@H]4O)cc3[C@H]2CO)ccc1O` [SILICRISTIN A] registered an IC50 in test [11] of 110 nM.

On to `N[C@@H](CCNCc1ccc(Cl)cc1)C(=O)N1CCCCC1`, for which the IC50 at Dipeptidyl peptidase 2 [12] is 0.14 nM; against Dipeptidyl peptidase 2 [13], 0.21 nM.
